Data taken from the CheMixHub ionic liquid set.

Assay: xn = mol fraction of the nth substance listed

C[N+]1(CCOCCOCC[N+]2(C)CCCC2)CCCC1.O=S(=O)([N-]S(=O)(=O)C(F)(F)F)C(F)(F)F.O=S(=O)([N-]S(=O)(=O)C(F)(F)F)C(F)(F)F + CC[n+]1ccn(C)c1.N#C[N-]C#N + O=S(=O)([N-]S(=O)(=O)C(F)(F)F)C(F)(F)F.[Li+]
electrical conductivity [S/m], 100 kPa
Details | 298 K | 303 K | 313 K | 323 K | 333 K | 343 K
x1 = 0.1484, x2 = 0.7091 | 0.719 | 0.844 | 1.2 | 1.49 | 1.86 | 2.18
x1 = 0.1554, x2 = 0.7427 | 0.972 | 1.17 | 1.56 | 1.97 | 2.42 | 2.85

CCCCCCCCCCCCCC[P+](CCCCCC)(CCCCCC)CCCCCC.[c-]1c[nH]nn1 + CCCCCCCCCCCCCC[P+](CCCCCC)(CCCCCC)CCCCCC.O=S(=O)([N-]S(=O)(=O)C(F)(F)F)C(F)(F)F
100 kPa
Details | viscosity [mPa·s]
288.15 K, x2 = 0.7 | 693
293.15 K, x2 = 0.5 | 502
293.15 K, x2 = 0.7 | 495
303.15 K, x2 = 0.401 | 288
303.15 K, x2 = 0.5 | 270
303.15 K, x2 = 0.7 | 270
308.15 K, x2 = 0.203 | 217
308.15 K, x2 = 0.5 | 204
308.15 K, x2 = 0.902 | 181

COS(=O)(=O)[O-].Cn1cc[n+](C)c1 + CCOCCO
viscosity [mPa·s], 101 kPa
Details | x1 = 0.0009004 | x1 = 0.002248 | x1 = 0.003592 | x1 = 0.004932 | x1 = 0.006269 | x1 = 0.007602
293.15 K | 2.1 | 2.12 | 2.14 | 2.16 | 2.18 | 2.21
303.15 K | 1.64 | 1.66 | 1.68 | 1.71 | 1.73 | 1.75
313.15 K | 1.27 | 1.29 | 1.32 | 1.34 | 1.37 | 1.39

CS(C)=O + CCC[N+]1(C)CCCC1.O=S(=O)([N-]S(=O)(=O)C(F)(F)F)C(F)(F)F
101 kPa, x2 = 0
Details | viscosity [mPa·s]
298.15 K | 2.118
308.15 K | 1.758
318.15 K | 1.489
328.15 K | 1.28
338.15 K | 1.116
348.15 K | 0.983
358.15 K | 0.874
